Measured values published in patent US6737383B1, “Herbicidal oxadiazolidines” (priority 1999, dated 2004).

What was measured:
[1] = tested on: soybean; assay: Test B pre/postemergence soybean; type: in vivo, Glycine max
How it was run: (§1)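 Response is a visual 0-to-10 score relative to untreated plants, where 0 means no effect and 10 means complete control, taken twelve to sixteen days after application. Treatments went onto soil at planting and onto foliage of 1- to 4-leaf plants, using a surfactant-containing non-phytotoxic solvent.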

[2] = tested on: morningglory; assay: Test B pre/postemergence morningglory; type: in vivo, Ipomoea hederacea
How it was run: as §1

[3] = tested on: rape; assay: Test B pre/postemergence rape; type: in vivo, Brassica napus
How it was run: as §1

[4] = tested on: pigweed; assay: Test B pre/postemergence pigweed; type: in vivo, Amaranthus retroflexus
How it was run: as §1

[5] = tested on: duck salad; assay: Test B flood test duck salad; type: in vivo, Heteranthera limosa
How it was run: (§2)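 Read-out is a visual response score from 0 (no effect) to 10 (complete control), assigned by comparison with untreated controls. Treatment was applied at the 2-leaf stage, and plants stayed in the greenhouse for twelve to sixteen days before scoring.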

[6] = tested on: blackgrass; assay: Test B pre/postemergence blackgrass; type: in vivo, Alopecurus myosuroides
How it was run: as §1

[7] = tested on: smallflower flatsedge; assay: Test B flood test smallflower flatsedge; type: in vivo, Cyperus difformis
How it was run: as §2

[8] = tested on: purple nutsedge; assay: Test B pre/postemergence purple nutsedge; type: in vivo, Cyperus rotundus
How it was run: as §1

[9] = tested on: surinam grass; assay: Test B pre/postemergence surinam grass; type: in vivo, Brachiaria decumbens
How it was run: as §1

[10] = tested on: corn; assay: Test B pre/postemergence corn; type: in vivo, Zea mays
How it was run: as §1

[11] = tested on: sugar beet; assay: Test B pre/postemergence sugar beet; type: in vivo, Beta vulgaris
How it was run: as §1

[12] = tested on: bamyardgrass; assay: Test B flood test barnyardgrass; type: in vivo, Echinochloa crus-galli
How it was run: as §2

[13] = tested on: cocklebur; assay: Test B pre/postemergence cocklebur; type: in vivo, Xanthium strumarium
How it was run: as §1

[14] = tested on: giant foxtail; assay: Test B pre/postemergence giant foxtail; type: in vivo, Setaria faberii
How it was run: as §1

[15] = tested on: bedstraw; assay: Test B pre/postemergence bedstraw; type: in vivo, Galium aparine
How it was run: as §1

[16] = tested on: velvetleaf; assay: Test B pre/postemergence velvetleaf; type: in vivo, Abutilon theophrasti
How it was run: as §1

[17] = Postemergence, Rate 62 g/ha, scale 0 to 10, 0 is no effect, 10 is complete control
[18] = Postemergence, Rate 250 g/ha, scale 0 to 10, 0 no effect, 10 complete control
[19] = Preemergence, Rate 62 g/ha, scale 0 to 10, 0 is no effect, 10 is complete control
[20] = Preemergence, Rate 125 g/ha, scale 0 to 10 (0 no effect, 10 complete control)
[21] = Preemergence, Rate 250 g/ha, scale of 0 to 10 where 0 is no effect and 10 is complete control
[22] = Preemergence, Rate 500 g/ha, scale 0 (no effect) to 10 (complete control)
[23] = Rate 125 g/ha, Postemergence, scale 0 to 10, 0 no effect, 10 complete control
[24] = Rate 500 g/ha, Postemergence, 0 to 10 scale (0 no effect, 10 complete control)
[25] = Rate 62 g/ha, headed Pre-emergence (flood test species), scale 0 to 10 (0 no effect, 10 complete control)
[26] = Rate 125 g/ha, Postemergence section (flood test species), scale 0 to 10, 0 no effect, 10 complete control
[27] = Rate 125 g/ha, Pre-emergence, flood test species, scale 0 to 10 where 0 is no effect and 10 is complete control
[28] = Rate 250 g/ha, headed Pre-emergence (flood test species), scale 0 to 10 (0 no effect, 10 complete control)
[29] = Rate 500 g/ha, Postemergence section of Table B, 0 to 10 scale (0 no effect, 10 complete control)
[30] = Rate 500 g/ha, headed Pre-emergence (flood test species), scale 0 to 10 (0 no effect, 10 complete control)
[31] = Rate 1000 g/ha, Pre-emergence (as headed), scale 0 to 10
[32] = Rate 2000 g/ha, Pre-emergence (as headed), scale 0 to 10
[33] = flood test, listed under Postemergence, Rate 250 g/ha, scale 0 to 10, 0 no effect, 10 complete control

In the case of `Cc1cccc(C)c1-n1c(=O)on(C(=O)N(c2ccc(F)cc2)C(C)C)c1=O` [Compound 18], the “Soybean plant response rating” value [1, 17] is reported as 2, the “Soybean plant response rating” value [1, 18] is reported as 3 and the “Plant response rating, Soybean” value [1, 19] is reported as 0. For the same molecule, the “Plant response rating, Soybean” value [1, 20] was 0, the “Plant response rating, Soybean” value [1, 21] was 0 and the “Soybean plant response rating” value [1, 22] was 0. The “Soybean plant response rating” value [1, 23] was 3, the “Morningglory plant response rating” value [2, 17] was 1 and the “Morningglory plant response rating” value [2, 18] was 2. For the same molecule, the “Plant response rating, Morningglory” value [2, 19] was 0, the “Plant response rating, Morningglory” value [2, 20] was 0 and the “Plant response rating, Morningglory” value [2, 21] was 0. The “Morningglory plant response rating” value [2, 22] was 2, the “Morningglory plant response rating” value [2, 23] was 1 and the “Morningglory plant response rating” value [2, 24] was 3. The “Rape plant response rating” value [3, 17] was 0, the “Rape plant response rating” value [3, 18] was 0 and the “Plant response rating, Rape” value [3, 19] was 0. The “Plant response rating, Rape” value [3, 20] was 0, the “Plant response rating, Rape” value [3, 21] was 0 and the “Rape plant response rating” value [3, 22] was 2. The “Rape plant response rating” value [3, 23] was 0, the “Rape plant response rating” value [3, 24] was 1 and the “Redroot pigweed plant response rating” value [4, 17] was 1. For the same molecule, the “Redroot pigweed plant response rating” value [4, 18] was 1, the “Plant response rating, Redroot pigweed” value [4, 19] was 4 and the “Plant response rating, Redroot pigweed” value [4, 20] was 7. For the same molecule, the “Plant response rating, Redroot pigweed” value [4, 21] was 8, the “Redroot pigweed plant response rating” value [4, 22] was 9 and the “Redroot pigweed plant response rating” value [4, 23] was 1. The “Redroot pigweed plant response rating” value [4, 24] was 6, the “Ducksalad plant response rating” value [5, 17] was 0 and the “Ducksalad plant response rating” value [5, 25] was 0. The “Ducksalad plant response rating” value [5, 26] was 7, the “Ducksalad plant response rating” value [5, 27] was 0 and the “Ducksalad plant response rating” value [5, 28] was 0. For the same molecule, the “Ducksalad plant response rating” value [5, 29] was 7, the “Plant response rating, Ducksalad” value [5, 30] was 1 and the “Ducksalad plant response rating” value [5, 31] was 0. The “Ducksalad plant response rating” value [5, 32] was 0, the “Ducksalad plant response rating” value [5, 33] was 7 and the “Blackgrass plant response rating” value [6, 17] was 0. The “Blackgrass plant response rating” value [6, 18] was 3, the “Plant response rating, Blackgrass” value [6, 19] was 2 and the “Plant response rating, Blackgrass” value [6, 20] was 0. The “Plant response rating, Blackgrass” value [6, 21] was 5, the “Blackgrass plant response rating” value [6, 22] was 5 and the “Blackgrass plant response rating” value [6, 23] was 0. For the same molecule, the “Blackgrass plant response rating” value [6, 24] was 3, the “S. Flatsedge plant response rating” value [7, 17] was 0 and the “S. Flatsedge plant response rating” value ([7]; Pre-emergence, Rate 1000 g/ha, scale 0 to 10 (0 no effect, 10 complete control)) was 0. For the same molecule, the “S. Flatsedge plant response rating” value [7, 25] was 0, the “S. Flatsedge plant response rating” value [7, 26] was 0 and the “S. Flatsedge plant response rating” value [7, 27] was 0. For the same molecule, the “S. Flatsedge plant response rating” value [7, 28] was 0, the “Plant response rating, S. Flatsedge” value [7, 30] was 6 and the “S. Flatsedge plant response rating” value [7, 32] was 0. For the same molecule, the “S. Flatsedge plant response rating” value [7, 33] was 6, the “Nutsedge plant response rating” value [8, 17] was 0 and the “Nutsedge plant response rating” value [8, 18] was 0. For the same molecule, the “Plant response rating, Nutsedge” value [8, 19] was 0, the “Plant response rating, Nutsedge” value [8, 20] was 0 and the “Plant response rating, Nutsedge” value [8, 21] was 0. For the same molecule, the “Nutsedge plant response rating” value [8, 22] was 0, the “Nutsedge plant response rating” value [8, 23] was 0 and the “Nutsedge plant response rating” value [8, 24] was 0. For the same molecule, the “B. signalgrass plant response rating” value [9, 17] was 0, the “B. signalgrass plant response rating” value [9, 18] was 0 and the “Plant response rating, B. signalgrass” value [9, 19] was 0. For the same molecule, the “Plant response rating, B. signalgrass” value [9, 20] was 0, the “Plant response rating, B. signalgrass” value [9, 21] was 7 and the “B. signalgrass plant response rating” value [9, 22] was 8. For the same molecule, the “B. signalgrass plant response rating” value [9, 23] was 0, the “B. signalgrass plant response rating” value [9, 24] was 2 and the “Corn plant response rating” value [10, 17] was 0. The “Corn plant response rating” value [10, 18] was 0, the “Plant response rating, Corn” value [10, 19] was 0 and the “Plant response rating, Corn” value [10, 20] was 0. The “Plant response rating, Corn” value [10, 21] was 0, the “Corn plant response rating” value [10, 22] was 0 and the “Corn plant response rating” value [10, 23] was 0. For the same molecule, the “Corn plant response rating” value [10, 24] was 0, the “Sugarbeets plant response rating” value [11, 17] was 0 and the “Sugarbeets plant response rating” value [11, 18] was 0. For the same molecule, the “Plant response rating, Sugarbeets” value [11, 19] was 0, the “Plant response rating, Sugarbeets” value [11, 20] was 0 and the “Plant response rating, Sugarbeets” value [11, 21] was 2. The “Sugarbeets plant response rating” value [11, 22] was 4, the “Sugarbeets plant response rating” value [11, 23] was 0 and the “Barnyardgrass plant response rating” value [12, 17] was 0. For the same molecule, the “Barnyardgrass plant response rating” value [12, 25] was 2, the “Barnyardgrass plant response rating” value [12, 26] was 0 and the “Barnyardgrass plant response rating” value [12, 27] was 2. The “Barnyardgrass plant response rating” value [12, 28] was 2, the “Barnyardgrass plant response rating” value [12, 29] was 10 and the “Plant response rating, Barnyardgrass” value [12, 30] was 8. For the same molecule, the “Barnyardgrass plant response rating” value [12, 31] was 9, the “Barnyardgrass plant response rating” value ([12]; Rate 2000 g/ha, Pre-emergence (as headed), scale 0 to 10, 0 no effect, 10 complete control) was 9 and the “Barnyardgrass plant response rating” value [12, 33] was 9. For the same molecule, the “Cocklebur plant response rating” value [13, 17] was 0, the “Cocklebur plant response rating” value [13, 18] was 1 and the “Plant response rating, Cocklebur” value [13, 19] was 0. For the same molecule, the “Plant response rating, Cocklebur” value [13, 20] was 0, the “Plant response rating, Cocklebur” value [13, 21] was 0 and the “Cocklebur plant response rating” value [13, 22] was 0. For the same molecule, the “Cocklebur plant response rating” value [13, 23] was 0, the “Cocklebur plant response rating” value [13, 24] was 2 and the “Giant foxtail plant response rating” value [14, 17] was 0. For the same molecule, the “Giant foxtail plant response rating” value [14, 18] was 1, the “Plant response rating, Giant foxtail” value [14, 19] was 2 and the “Plant response rating, Giant foxtail” value [14, 20] was 5. The “Plant response rating, Giant foxtail” value [14, 21] was 8, the “Giant foxtail plant response rating” value [14, 22] was 9 and the “Giant foxtail plant response rating” value [14, 23] was 1. For the same molecule, the “Giant foxtail plant response rating” value [14, 24] was 3, the “Bedstraw plant response rating” value [15, 17] was 2 and the “Bedstraw plant response rating” value [15, 18] was 7. The “Plant response rating, Bedstraw” value [15, 19] was 0, the “Plant response rating, Bedstraw” value [15, 20] was 0 and the “Plant response rating, Bedstraw” value [15, 21] was 0. For the same molecule, the “Bedstraw plant response rating” value [15, 22] was 3, the “Bedstraw plant response rating” value [15, 23] was 7 and the “Bedstraw plant response rating” value [15, 24] was 9. The “Velvetleaf plant response rating” value [16, 17] was 0, the “Velvetleaf plant response rating” value [16, 18] was 1 and the “Plant response rating, Velvetleaf” value [16, 19] was 0. For the same molecule, the “Plant response rating, Velvetleaf” value [16, 20] was 0, the “Plant response rating, Velvetleaf” value [16, 21] was 0 and the “Velvetleaf plant response rating” value [16, 22] was 0. For the same molecule, the “Velvetleaf plant response rating” value [16, 23] was 0.
